Read-outs that look alike come from different tables or passages of the source.
What was measured:
[1] = molecular target: PR^S17; assay: Kinetic inhibition; type: biochemical, HIV-1; conditions: read-out: Ki for PR^S17; FRET-substrate (BACHEM H-2992), 37°C, pH 5.6
[2] = test system: PR dimerization; conditions: relative to 1; cited from earlier work
[3] = compared to 1; cited from earlier work
[4] = molecular target: HIV-1 protease (PR); conditions: cited from earlier work
[5] = test system: HIV-1; conditions: read-out: antiviral IC50; MTT assay; cited from earlier work
[6] = molecular target: PR^S17; conditions: read-out: Ki for PR^S17; clinical inhibitors; cited from earlier work

CC(C)CN(C[C@@H](O)[C@H](Cc1cc(F)cc(F)c1)NC(=O)O[C@H]1C2COC3OCC1C3C2)S(=O)(=O)c1ccc2nc(NC3CC3)sc2c1 (stereo partly shown) [Compound 3, GRL-142]
Ki [1]: 17 ± 1.3 nM | fold better inhibition of PR dimerization than 1 [2]: around 1000 fold | CNS penetration in vitro [3]: better CNS penetration in vitro compared to 1

GRL-4410 [Compound 2]
Ki [1]: 15.8 ± 4.8 nM | Ki [4]: 0.0029 nM | IC50 [5]: 2.4 nM

CC(C)CN(C[C@@H](O)[C@H](Cc1ccccc1)NC(=O)O[C@H]1CCOC1)S(=O)(=O)c1ccc(N)cc1 [amprenavir]
Ki [6]: 11 nM
